In patent US12370198B2, “Pharmaceutical compositions and methods for treating psychiatric disorders” (LA PHARMATECH INC., priority 2022, dated 2025):

How the values were obtained:
[1] = tested on: release of prostaglandin D2 (PGD2) and leukotrienes C4/D4 (LTC4/D4); settings: background statement; cited from earlier work
[2] = tested on: generalized anxiety disorder (GAD); experiment: Clinical case treatment of patients with generalized anxiety disorder; type: in vivo, human; settings: for improvement of GAD reported by patient: Example 1, person
Description: A patient was diagnosed with generalized anxiety disorder (GAD) and they had no complaints of having insomnia. […] Then they were treated with the combination of ebastine (20 mg) and alprazolam (1 mg) for 2 weeks. […] The inventors believe the composition of two mechanisms of actions provided a new solution for treating their GAD which could not be treated with alprazolam and the like alone.
A patient with no insomnia symptom order was diagnosed with GAD. The patient was treated with alprazolam (2 mg) for 2 weeks from their first clinic visit and alprazolam (4 mg) for 2 weeks from their second clinic visit. […] On the third clinic visit, the patient was prescribed with the combination of ebastine (10 mg) and alprazolam (4 mg). […] The inventors believe that the two compositions of two mechanisms of actions provided a new solution for treating their […] which could not be treated with other options.

[3] = tested on: major depressive disorder (MDD); experiment: Clinical case treatment of patients with major depressive disorder; type: in vivo, human; settings: for improvement of MDD: alprazolam 5 mg for 2 weeks; for outcome of previous anti-depressant treatment of MDD: Example 2, person; for outcome of previous anti-depressant treatment of MDD / outcome of previous treatments of MDD symptoms: previous treatments; for outcome of previous treatments of MDD symptoms: Example 4, person
Description: A patient having no insomnia symptom was diagnosed with major depressive disorder (MDD) showing persistent sadness, loneliness, helpless, and hapless. […] Then they were prescribed with a combination of ebastine (30 mg) and alprazolam (5 mg) for 4 weeks.
A patient with no insomnia symptom was diagnosed with major depressive disorder (MDD) with persistent sadness, lack of interest, and feeling lonely. […] Then they were treated with a combination of ebastine (30 mg) and alprazolam (0.5 mg) for 4 weeks from the second clinic visits.

[4] = tested on: mild chronic depression (MCD); experiment: Clinical case treatment of a patient with mild chronic depression; type: in vivo, human; settings: Example 3
Description: The patient was prescribed with ebastine 30 mg for 3 weeks from the first clinic visit. […] Then they were prescribed with a combination of ebastine (10 mg) and alprazolam (0.5 mg) for a 4-week treatment.

[5] = tested on: premenstrual dysphoric disorder (PDD); experiment: Clinical case treatment of a patient with premenstrual dysphoric disorder; type: in vivo, human
Description: A patient with no insomnia symptom was diagnosed with premenstrual dysphoric disorder (PDD) with symptoms of persistent hopelessness, sadness, anxiety and frequent tearfulness on the first clinic visit and was provided with fluoxetine 40 mg for 3 weeks. […] Then the patient was prescribed with the combination of ebastine (20 mg) and alprazolam (2 mg) for 2 weeks.

REM sleep = settings: background studies; cited from earlier work
allergic rhinitis = experiment: Clinical case treatment of allergic rhinitis; type: in vivo, human; settings: Example 3, person; ebastine 30 mg for 3 weeks
Description: A patient with no insomnia symptom was having allergic rhinitis with itchy nose, mouth and eyes, frequent sneezing, watery eyes and coughing, and runny nose when they were diagnosed with mild chronic depression (MCD) but showing symptoms of sadness, lack of interest, loneliness and helpless, consistent frustration for 4 weeks with failed treatment history of allergic rhinitis. The patient was prescribed with ebastine 30 mg for 3 weeks from the first clinic visit. […] But their symptoms from MCD were persistent. […] Then they were prescribed with a combination of ebastine (10 mg) and alprazolam (0.5 mg) for a 4-week treatment.

[6] = tested on: release of cytokines (GM-CSF, tumour necrosis factor-a, interleukin-8); settings: background statement; cited from earlier work

CC(C)(C(=O)O)c1ccc(C(=O)CCCN2CCC(OC(c3ccccc3)c3ccccc3)CC2)cc1 [carebastine]
release of PGD2 [1]: inhibits

Cc1nnc2n1-c1ccc(Cl)cc1C(c1ccccc1)=NC2 [alprazolam, 8-chloro-1-methyl-6-phenyl-4H-s-triazolo[4,3-a][1,4]benzodiazepine]
improvement of GAD reported by patient ([2]; alprazolam 0.5 mg for 2 weeks): no improvement
improvement of GAD reported by patient ([2]; alprazolam 2 mg for 2 weeks): no improvement
improvement of GAD symptoms (anxiety, agitation, sweating, nausea, headaches) ([2]; Example 5, person, alprazolam (2 mg) for 2 weeks): failed to improve
improvement of GAD symptoms (anxiety, agitation, sweating, nausea, headaches) ([2]; Example 5, alprazolam (4 mg) for 2 weeks): failed to improve
improvement of MDD ([3]; Example 2): no improvement
improvement of MDD ([3]; Example 4): 20%
improvement of MCD symptoms ([4]; alprazolam 1 mg for 3 weeks): no improvement
improvement of PDD symptoms ([5]; Example 6, alprazolam (2 mg) for 2 weeks): failed to improve
REM latency (REM sleep): increases
length of REM periods and frequency of REM burst activities (REM sleep): significantly decreases

CNCC[C@H](Oc1cccc2ccccc12)c1cccs1 [duloxetine]
outcome of previous anti-depressant treatment of MDD [3]: failed

CC(C)(C)c1ccc(C(=O)CCCN2CCC(OC(c3ccccc3)c3ccccc3)CC2)cc1 [ebastine, 4-diphenylmethoxy-1-[3-(4-tert-butylbenzoyl)-propyl]piperidine]
symptoms from MCD ([4]; ebastine 30 mg for 3 weeks): persistent
recovery from allergic rhinitis (allergic rhinitis): complete recovery
anti-IgE-induced release of prostaglandin D2 (PGD2) and leukotrienes C4/D4 (LTC4/D4) [1]: significantly inhibits
release of cytokines, including GM-CSF, tumour necrosis factor-a and interleukin-8 [6]: inhibited

CNCCC(Oc1ccc(C(F)(F)F)cc1)c1ccccc1 (centres unmarked) [fluoxetine]
outcome of previous treatments of MDD symptoms [3]: failed to improve
improvement of PDD symptoms ([5]; Example 6, person, fluoxetine 40 mg for 3 weeks): no improvement

CC(NC(C)(C)C)C(=O)c1cccc(Cl)c1 (centres unmarked) [bupropion]
outcome of previous anti-depressant treatment of MDD [3]: failed
outcome of previous treatments of MDD symptoms [3]: failed to improve
